# Measurements published in patent publication US10253052B2, “HBED-bisphosphonates, radiometal conjugates and their use as theranostic agents” (Five Eleven Pharma Inc., priority 2015, dated 2019).
# Where “and” joins values, the source holds several entries; their conditions need not be identical. Equal values may be shown once. Entries after “also recorded” stand apart in the source; their conditions may differ.
# How the values were obtained:
# [1] = In vivo biodistribution in mice; set-up: species or system normal CD-1 male mice; conditions: for bone to blood ratio / bone to muscle ratio / Biodistribution: Blood / Biodistribution: Bone / Biodistribution: Brain / Biodistribution: Heart / Biodistribution: Kidney / Biodistribution: Liver / Biodistribution: Lung / Biodistribution: Muscle / Biodistribution: Pancreas / Biodistribution: Skin / Biodistribution: Spleen: iv
# Summary of the method: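 Uptake values are % injected dose per gram of wet tissue, from gamma counting of weighed organs with tibia plus femur taken as bone. Tracers (20-30 μCi per animal) were given i.v. to healthy male CD-1 mice (25-30 g), with sacrifice at 2, 30, 60 and 120 min post injection.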
# [2] = Micro-PET imaging in normal mice; type: in vivo, normal CD-1 male mice; conditions: 15 min scan at 60 min post-injection
# Procedure: [^68Ga]1a, [^68Ga]BPAMD and [^18F]NaF were tested in normal CD-1 male mice. [^68Ga]1g was tested in PSMA expressing LNCaP tumor bearing nude mice. Mice received 300-500 uCi radiotracer through a tail vein injection. PET imaging was performed under isoflurane anaesthesia (2% isoflurane, 1.5 L/min oxygen). The microPET imaging was performed with a small animal PET (Mosaic by Phillips, USA). During PET measurements, the animals were placed in the prone position. At 60 min post injection of the radiotracer, data acquisition was performed for 15 min.
# [3] = In vitro binding to hydroxyapatite; conditions: 20 mg hydroxyapatite in saline, 10 min at room temperature
# Summary of the method: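 Binding is given as the percentage of ^68Ga activity retained by hydroxyapatite, measured by gamma counting of the solid versus the pooled supernatant and saline washes. The tracer (1 μCi) was exposed for 10 min at room temperature to hydroxyapatite pre-soaked 24 h in isotonic saline.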
compound,measurement,setting,value
O=C([O-])CN(CCN(CC(=O)[O-])Cc1cc(CCC(=O)NC(P(=O)(O)O)P(=O)(O)O)ccc1[O-])Cc1cc(CCC(=O)O)ccc1[O-].[68Ga+3] [[^68Ga]1a],bone to blood ratio,[1]; 2 min,0.9
same,bone to muscle ratio,[1]; 2 min,4.8
same,Biodistribution: Blood,[1]; 2 min post injection,9.39 ± 0.93 % dose/g
same,Biodistribution: Bone,[1]; 2 min post injection,8.60 ± 0.85 % dose/g
same,Biodistribution: Brain,[1]; 2 min post injection,0.31 ± 0.10 % dose/g
same,Biodistribution: Heart,[1]; 2 min post injection,3.28 ± 0.13 % dose/g
same,Biodistribution: Kidney,[1]; 2 min post injection,31.2 ± 1.92 % dose/g
same,Biodistribution: Liver,[1]; 2 min post injection,1.95 ± 0.15 % dose/g
same,Biodistribution: Lung,[1]; 2 min post injection,4.28 ± 0.21 % dose/g
same,Biodistribution: Muscle,[1]; 2 min post injection,1.80 ± 0.16 % dose/g
same,Biodistribution: Pancreas,[1]; 2 min post injection,1.58 ± 0.10 % dose/g
same,Biodistribution: Skin,[1]; 2 min post injection,2.18 ± 0.28 % dose/g
same,Biodistribution: Spleen,[1]; 2 min post injection,1.89 ± 0.20 % dose/g
same,bone to blood ratio,[1]; 30 min,36
same,bone to muscle ratio,[1]; 30 min,96
same,Biodistribution: Blood,[1]; 30 min (0.5 hr) post injection,0.45 ± 0.10 % dose/g
same,Biodistribution: Bone,[1]; 30 min (0.5 hr) post injection,16.0 ± 1.22 % dose/g
same,Biodistribution: Brain,[1]; 30 min (0.5 hr) post injection,0.02 ± 0.01 % dose/g
same,Biodistribution: Heart,[1]; 30 min (0.5 hr) post injection,0.22 ± 0.02 % dose/g
same,Biodistribution: Kidney,[1]; 30 min (0.5 hr) post injection,1.54 ± 0.29 % dose/g
same,Biodistribution: Liver,[1]; 30 min (0.5 hr) post injection,0.32 ± 0.20 % dose/g
same,Biodistribution: Lung,[1]; 30 min (0.5 hr) post injection,0.38 ± 0.03 % dose/g
same,Biodistribution: Muscle,[1]; 30 min (0.5 hr) post injection,0.17 ± 0.03 % dose/g
same,Biodistribution: Pancreas,[1]; 30 min (0.5 hr) post injection,0.30 ± 0.27 % dose/g
same,Biodistribution: Skin,[1]; 30 min (0.5 hr) post injection,0.42 ± 0.12 % dose/g
same,Biodistribution: Spleen,[1]; 30 min (0.5 hr) post injection,0.17 ± 0.01 % dose/g
same,bone to blood ratio,[1]; 60 min,118
same,Biodistribution: Blood,[1]; 60 min (1 hr) post injection,0.20 ± 0.06 % dose/g
same,Biodistribution: Bone,[1]; 60 min (1 hr) post injection,23.5±1.4 % dose/g and 23.5 ± 1.42 % dose/g
same,Biodistribution: Brain,[1]; 60 min (1 hr) post injection,0.02 ± 0.01 % dose/g
same,Biodistribution: Heart,[1]; 60 min (1 hr) post injection,0.12 ± 0.02 % dose/g
same,Biodistribution: Kidney,[1]; 60 min (1 hr) post injection,1.63 ± 0.71 % dose/g
same,Biodistribution: Liver,[1]; 60 min (1 hr) post injection,0.17 ± 0.01 % dose/g
same,Biodistribution: Lung,[1]; 60 min (1 hr) post injection,0.21 ± 0.03 % dose/g
same,Biodistribution: Muscle,[1]; 60 min (1 hr) post injection,0.08 ± 0.02 % dose/g
same,Biodistribution: Pancreas,[1]; 60 min (1 hr) post injection,0.09 ± 0.02 % dose/g
same,Biodistribution: Skin,[1]; 60 min (1 hr) post injection,0.19 ± 0.05 % dose/g
same,Biodistribution: Spleen,[1]; 60 min (1 hr) post injection,0.10 ± 0.02 % dose/g
same,bone to blood ratio,[1]; 120 min,320
same,bone to muscle ratio,[1]; 120 min,447
same,Biodistribution: Blood,[1]; 120 min post injection,0.07 ± 0.03 % dose/g
same,Biodistribution: Bone,[1]; 120 min post injection,23.9 ± 1.99 % dose/g
same,Biodistribution: Brain,[1]; 120 min post injection,0.01 ± 0.00 % dose/g
same,Biodistribution: Heart,[1]; 120 min post injection,0.07 ± 0.01 % dose/g
same,Biodistribution: Kidney,[1]; 120 min post injection,0.92 ± 0.10 % dose/g
same,Biodistribution: Liver,[1]; 120 min post injection,0.14 ± 0.02 % dose/g
same,Biodistribution: Lung,[1]; 120 min post injection,0.12 ± 0.03 % dose/g
same,Biodistribution: Muscle,[1]; 120 min post injection,0.05 ± 0.01 % dose/g
same,Biodistribution: Pancreas,[1]; 120 min post injection,0.05 ± 0.01 % dose/g
same,Biodistribution: Skin,[1]; 120 min post injection,0.13 ± 0.03 % dose/g
same,Biodistribution: Spleen,[1]; 120 min post injection,0.09 ± 0.03 % dose/g
same,"Biodistribution result in words (organ uptake, retention, excretion)",[1]; normal mice after iv injection,excellent bone uptake and fast kidney excretion; also recorded: excellent bone uptake and retention
same,Micro-PET localization (in words),[2],localized in the spines of mice
same,Hydroxyapatite Binding (%),[3],92.3 ± 1.1%
